Results from patent US6706702B2, “Aryl fused azapolycyclic compounds” (Pfizer Inc., priority 1998, dated 2004).

SMILES	melting point
Cl.FC(F)Oc1ccc2c(c1)CC1CNCC2C1 (stereo not shown)	230 to 234 °C
Cl.O=[N+]([O-])c1ccc2c(c1)C1CNCC(C2)C1 (stereo not shown)	215 to 220 °C
COc1cccc2c1CC1CNCC2C1.Cl (stereo not shown)	272 to 274 °C
COc1ccc2c(c1)CC1CNCC2C1.Cl (stereo not shown)	253.5 to 258 °C

More lines, now with the values ahead:

melting point	SMILES
202 to 203 °C	Cl.Fc1ccc2c(c1)CC1CC2CN(Cc2ccccc2)C1 (stereo not shown)
241 to 243 °C	Cl.c1c2c(cc3c1OCO3)C1CNCC(C2)C1 (stereo not shown)
240 to 242 °C	Cl.c1cncc(-c2ccc3c(c2)CC2CNCC3C2)c1 (stereo not shown)
